For test [1], the system named is relatively quiescent neural stem cells in subependyma. Nature of the test: 3H-thymidine kill, number of neurospheres formed in vitro (Example 26). Type of test: in vivo, mouse. The method, then:
As detailed in Example 26 below, an experiment was performed to determine whether the in vitro stem cell is derived from the constitutively proliferating population or from the quiescent population. Animals were treated in one of the following ways: […] Adult male CD1 mice were divided into 4 groups. Group A animals received a series of 3H-thymidine injections on day 0 (3 injections, 1 every 4 hours). Animals in groups B and C received a series of 3H-thymidine injections on day 0 followed by a second series of injections on day 2 or 4. Group D animals received injections of physiological saline instead of 3H-thymidine over the same time course as group A. Animals from all groups were sacrificed by cervical dislocation 16-20 hours following the last series of injections. Brains were removed and neural tissue obtained from the subependyma surrounding the lateral ventricles in the forebrain was dissociated and the neural cells cultured as described in Example 5. At 6 and 8 days in vitro, the total number of spheres was counted in each of the 35 mm wells.

The subject of test [2] is constitutively proliferating subependymal cells. Nature of the test: 3H-thymidine kill of constitutively proliferating subependymal cells, BrdU count (Example 24). On the set-up: concentration or dose not given beside the values. The format is in vivo, mouse. The method, then:
Adult male CD1 mice received a series of intraperitoneal injections of 3H-thymidine (0.8 ml per injection, specific activity 45-55 mCi/mmole, ICN Biomedical) on day 0 (3 injections, 1 every 4 hours) in order to kill the constitutively proliferating subependymal cells. On day 0.5, 1, 2, 4, 6, 8 or 12, animals received 2 BrdU injections 1 hour apart (see Example 25) and were sacrificed 0.5 hour after the last injection. In a second group of animals, 3H-thymidine injections were given on day 0 (3 injections, 1 every 4 hours), followed by an identical series of injections on day 2 or 4. Animals were allowed to survive for 8 days following the second series of injections ([…] and 12 respectively) at which time they received 2 injections of BrdU and were sacrificed 0.5 hours later. Animals were sacrificed and the brains were removed and processed as described in Example 25.

The test system of another test is Primary striatal cells. Briefly: Striatum-derived neurosphere proliferation in response to proliferative and regulatory factors (Example 43, Paradigm 1). The conditions noted are these: for Numbers of neurospheres generated (#): decrease (−) or increase (+) per well compared with absence of the REGULATORY FACTOR: 10-12 days; for numbers of neurospheres generated: in all of the proliferative factors or combinations tested. Type of test: cell-based, mouse. As to the method: Paradigm 1: Primary striatal cells prepared as outlined in Example 1 were suspended in Complete Medium, without growth factors, plated in 96 well plates (Nunclon) and incubated as described in Example 4. Following a one hour incubation period, a specific proliferative factor, or a combination of proliferative factors including EGF, or bFGF (recombinant human bFGF: R & D Systems), or a combination of EGF and bFGF, or EGF plus FGF plus heparan sulfate (Sigma), or bFGF plus heparan sulfate made up in Complete Medium at a concentration of 20 ng/ml for each of the growth factors and 2 μg/ml for heparan sulfate), was added to each well of the plate.
Retinoic acid (Sigma) was added at a concentration of 10^−6 M. 10 μl of one of these regulatory factor-containing solutions was added to each proliferative factor-containing well of the 96 well plates. Control wells, containing only proliferative factors, were also prepared. […]
IL-2, IL-6, IL-8, MIP-1∂, MIP-1β, MIP-2, TNFα and EGF additions were repeated every second day, CNTF which was added each day and retinoic acid, NGF and PDGF were added only once, at the beginning of the experiment. The cells were incubated for a period of 10-12 days. The number of neurospheres in each well was counted and the resulting counts tabulated using Cricket Graph III. Other relevant information regarding sphere size and shape were also noted.

The subject of test [3] is EGF-generated neurospheres. Briefly: Effect of growth factors on neurosphere differentiation, immunocytochemistry (Example 8). Type of test: cell-based, mouse. The method, then:
Six to 8 days after the first passage, the neurospheres were removed and centrifuged at 400 r.p.m. The EGF-containing supernatant was removed and the pellet suspended in EGF-free complete medium containing 1% FBS. Neurospheres (approximately 0.5-1.0×10^6 cells/well) were plated on poly-L-ornithine-coated (15 μg/ml) glass coverslips in 24 well Nuclon (1.0 ml/well) culture dishes. After 24 hours in culture, the coverslips were transferred to 12 well (Costar) culture dishes containing complete medium containing 0.5% FBS. The medium was changed every 4-7 days. This differentiation procedure is referred to as the “Rapid Differentiation Paradigm” or RDP.
Six to 8 days after the first passage, the neurospheres were removed and centrifuged at 400 r.p.m. The EGF-containing media was removed and the pellet was suspended in EGF-free complete medium containing 1% FBS. The neurospheres were mechanically dissociated into single cells with a fire-polished Pasteur pipette and centrifuged at 800 r.p.m. for 5 minutes. Between 0.5×10^6 and 1.0×10^6 cells were plated on poly-L-ornithine-coated (15 μg/ml) glass coverslips in 24 well Nuclon (1.0 ml/well) culture dishes. The EGF-free culture medium containing 1% FBS was changed every 4-7 days.
Neurospheres were washed free of EGF by serial transfers through changes of EGF-free medium. A single neurosphere was plated onto poly-L-ornithine-coated (15 μg/ml) glass coverslips in a 24-well plate. The culture medium used was complete medium with or without I % FBS. The medium was changed every 4-7 days.
Neurospheres were washed free of EGF by serial transfers through changes of EGF-free medium. A single neurosphere was mechanically dissociated in a 0.5 ml Eppendorf centrifuge tube and all the cells were plated onto a 35 mm culture dish. Complete medium was used with or without 1% FBS.
The effects of CNTF, FGF-2, BDNF, and retinoic acid on neurosphere differentiation were tested using the differentiation paradigms set forth in Example 7.
The effect of CNTF was assayed in paradigms 1 and 3. For both paradigms, CNTF was added either at the beginning of the experiment at a concentration of 10 ng/ml or daily at a concentration of 1 ng/ml.
Three different antibodies directed against 04, galactocerebroside (GalC) and MBP were used to study the effect of CNTF on the oligodendrocytes of paradigm 1. CNTF had no effect on the number of 04(+) cells, but there was an increase in the number of GalC(+) and MBP(+) cells compared with the control. Thus it appears that CNTF plays a role in the maturation of oligodendrocytes.
The effect of FGF-2 was tested using paradigms 2 and 4. In paradigm 2, 20 ng/ml of FGF-2 was added at the beginning of the experiment and cells were stained 7 days later. FGF-2 increased the number of GFAP(+) cells and the number of NSE(+) cells.
In paradigm 4, 20 ng/ml of FGF-2 was added at the beginning of the experiment and assayed 7-10 days later. […] It induced two different cell types to divide, neuroblasts and bipotential progenitor cells. The neuroblast produced, on average, 6 neurons while the bipotential cell produced approximately 6 neurons and a number of astrocytes.

[4] abbreviates: PROLIFERATIVE FACTOR EGF 20 ng/ml.
[5] abbreviates: PROLIFERATIVE FACTOR bFGF 20 ng/ml.
The mark [6] stands for this setting: PROLIFERATIVE FACTORS EGF + bFGF + Heparan.
[7] abbreviates: PROLIFERATIVE FACTORS EGF + bFGF.
[8] abbreviates: PROLIFERATIVE FACTORS bFGF + Heparan.
Where [9] appears, read: paradigm 1, CNTF 10 ng/ml at beginning or 1 ng/ml daily.

With `Cc1cn([C@H]2C[C@H](O)[C@@H](CO)O2)c(=O)[nH]c1=O` [3H-thymidine], the “Number of Neurospheres produced in vitro relative to control” value in test [1] (high doses on day 0) was “the same number of spheres”; in test [1] (high doses on day 0, listed as radioactive thymidine), 100%; in test [1] (high doses on day 0 and day 2) it was 45%; in test [1] (high doses on day 0 and day 2, listed as radioactive thymidine), 45%; in test [1] (high doses on day 0 and day 4), “not significantly different from control values”; in test [1] (high doses on day 0 and day 4, listed as radioactive thymidine), 85%. In addition, the “proliferating subependymal population relative to controls” value in test [2] (one kill on day 0, 8 days) was 85%; in test [2] (one kill on day 0, 8 days, listed as radioactive thymidine), “back to control levels”; in test [2] (one kill on day 0, day 1 post-kill), 10%; in test [2] (second kill on day 2, 8 days later), 45%; in test [2] (second kill on day 2, 31 days after the second kill), 63%; in test [2] (second kill on day 4, 8 days later) it was “return to control values”. Further, in test [2] (second kill on day 4, 8 days later, listed as radioactive thymidine), the “proliferating subependymal population relative to controls” value was determined as 85%.

For `CC1=C(/C=C/C(C)=C/C=C/C(C)=C/C(=O)O)C(C)(C)CCC1` [Retinoic Acid, retinoic acid, reference compound], the “Numbers of neurospheres generated (#): decrease (−) or increase (+) per well compared with absence of the REGULATORY FACTOR” value with Primary striatal cells (setting [4]) was −8%; in the test on Primary striatal cells (setting [5]), −61%; in the test with Primary striatal cells (setting [6]), −45%; in the test on Primary striatal cells (setting [7]), −31%; with Primary striatal cells (setting [8]), −65%. In addition, the “Size of neurospheres compared to PROLIFERATIVE FACTORS alone” value in the test on Primary striatal cells (PROLIFERATIVE FACTOR bFGF) is “−”.

Regarding PDGF, the “Numbers of neurospheres generated (#): decrease (−) or increase (+) per well compared with absence of the REGULATORY FACTOR” value was −1.5% in the test with Primary striatal cells (setting [4]); −4% in the test with Primary striatal cells (setting [5]); −27% in the test on Primary striatal cells (setting [6]); −26% in the test with Primary striatal cells (setting [7]); −10% in the test with Primary striatal cells (setting [8]). Also, the “numbers of neurospheres generated” value in the test with Primary striatal cells is given as “significantly reduced”.

With TNFα, the “Numbers of neurospheres generated (#): decrease (−) or increase (+) per well compared with absence of the REGULATORY FACTOR” value in the test on Primary striatal cells (setting [4]) is −17%; with Primary striatal cells (setting [5]), −17%; with Primary striatal cells (setting [6]) it was −37%; with Primary striatal cells (setting [7]) it was −41%; in the test with Primary striatal cells (setting [8]), −21%. Besides, the “numbers of neurospheres generated” value in the test on Primary striatal cells is recorded as “significantly reduced”.

For heparan sulfate [reference compound], the “Numbers of neurospheres generated (#): decrease (−) or increase (+) per well compared with absence of the REGULATORY FACTOR” value in the test with Primary striatal cells (setting [4]), with Primary striatal cells (setting [5]) and in the test with Primary striatal cells (setting [7]) was 0% each time. For the same molecule, the “Size of neurospheres compared to PROLIFERATIVE FACTORS alone” value in the test on Primary striatal cells (PROLIFERATIVE FACTOR bFGF) is on record as “++”. The “increase in size of the neurospheres formed in response to bFGF” value in the test on Primary striatal cells (added to bFGF) was “about 400%”. Moreover, in the test on Primary striatal cells (heparan sulfate 2 μg/ml added to bFGF generated spheres), the “size of neurospheres relative to those which occur in response to EGF” value is “approximately 70%”.

B1: CNTF: ciliary neurotrophic factor (protein, UniProt P26441 1-200, looked up)
Ciliary neurotrophic factor: MAFTEHSPLTPHRRDLCSRSIWLARKIRSDLTALTESYVKHQGLNKNINLDSADGMPVASTDQWSELTEAERLQENLQAYRTFHVLLARLLEDQQVHFTPTEGDFHQAIHTLLLQVAAFAYQIEELMILLEYKIPRNEADGMPINVGDGGLFEKKLWGLKVLQELSQWTVRSIHDLRFISSHQTGIPARGSHYIANNKKM
Regarding B1, the “number of GalC(+) cells compared with control” value in test [3] (paradigm 1) is given as “increase”. Besides, the “number of MBP(+) cells compared with control” value in test [3] (paradigm 1) was “increase”. Besides, the “number of O4(+) cells” value in test [3] (paradigm 1) was “no effect”. Also, in test [3] (setting [9]), the “number of NSE-immunoreactive cells” value is “increased”. Besides, the “number of tau-1-immunoreactive cells” value in test [3] (setting [9]) is recorded as “increased”. For the same molecule, the “number of cells containing GABA and substance P” value in test [3] (paradigm 1, preliminary testing) is “no increase”. Besides, in test [3] (paradigm 1 without serum), the “proliferation of flat, protoplasmic astrocytes” value was “increase”. For the same molecule, the “number of NSE(+) cells” value in test [3] (paradigm 3, CNTF) is “increase”. Moreover, the “Size of neurospheres compared to PROLIFERATIVE FACTORS alone” value in the test on Primary striatal cells (PROLIFERATIVE FACTOR EGF) and in the test on Primary striatal cells (setting [8]) was “−” in each case. Moreover, the “Numbers of neurospheres generated (#): decrease (−) or increase (+) per well compared with absence of the REGULATORY FACTOR” value is −23% with Primary striatal cells (setting [4]); −77% in the test with Primary striatal cells (setting [5]); −84% in the test with Primary striatal cells (setting [6]); −81% with Primary striatal cells (setting [7]); −81% in the test on Primary striatal cells (setting [8]). For the same molecule, the “numbers of neurospheres generated” value in the test on Primary striatal cells was “significantly reduced”.

The values are drawn from patent US6497872B1, “Neural transplantation using proliferated multipotent neural stem cells and their progeny” (NeuroSpheres Holdings Ltd., priority 1991, dated 2002).
